Assays:
Reverse transcriptase = details: cited from earlier work
[1] = biological target: terminal deoxynucleotidyl transferase (Homo sapiens, UniProt P04053); details: cited from earlier work
MEXF 394NL = assay: Monolayer proliferation assay (modified propidium iodide assay), MEXF 394NL; format: cell-based, human; details: MEXF 394NL (melanoma), 4 days continuous exposure
Method: (§1) In vitro evaluation of compounds for anticancer activity in a panel of human tumour cell lines in a monolayer proliferation assay was carried out at the Oncotest Testing Facility, Institute for Experimental Oncology, Oncotest GmbH, Freiburg.
(§2) The Oncotest cell lines are established from human tumor xenografts as described by Roth et al., (1999). The origin of the donor xenografts was described by Fiebig et al., (1999). Other cell lines were either obtained from the NCI (DU145, MCF-7) or purchased from DSMZ, Braunschweig, Germany.
(§3) All cell lines, unless otherwise specified, were grown at 37° C. in a humidified atmosphere (95% air, 5% CO2) in a ‘ready-mix’ medium containing RPMI 1640 medium, 10% fetal calf serum, and 0.1 mg/mL gentamicin (PAA, Cölbe, Germany).
(§4) A modified propidium iodide assay was used to assess the effects of the test compound(s) on the growth of human tumour cell lines (Dengler et al., (1995)).
(§5) Briefly, cells were harvested from exponential phase cultures by trypsinization, counted and plated in 96 well flat-bottomed microtitre plates at a cell density dependent on the cell line (5-10.000 viable cells/well). […] After thawing the plates, fluorescence was measured using the Cytofluor 4000 microplate reader (excitation 530 nm, emission 620 nm), giving a direct relationship to the total number of viable cells.
(§6) Growth inhibition was expressed as treated/control×100 (% T/C). […]

LXF 1121L = assay: Monolayer proliferation assay (modified propidium iodide assay), LXF 1121L; format: cell-based, human; details: LXF 1121L (lung, large cell ca), 4 days continuous exposure
Method: as §1, §2, §3, §4, §5, §6

CNXF 498NL = assay: Monolayer proliferation assay (modified propidium iodide assay), CNXF 498NL; format: cell-based, human; details: CNXF 498NL (CNS), 4 days continuous exposure
Method: as §1, §2, §3, §4, §5, §6

DU145 = assay: Monolayer proliferation assay (modified propidium iodide assay), DU145; format: cell-based, human; details: DU145 (prostate, PTEN positive), 4 days continuous exposure
Method: as §1, §2, §3, §4, §5, §6

MCF-7 = assay: Monolayer proliferation assay (modified propidium iodide assay), MCF-7; format: cell-based, human; details: MCF-7 (breast), 4 days continuous exposure
Method: as §1, §2, §3, §4, §5, §6

CXF HT29 = assay: Monolayer proliferation assay (modified propidium iodide assay), CXF HT29; format: cell-based, human; details: CXF HT29 (colon), 4 days continuous exposure
Method: as §1, §2, §3, §4, §5, §6

Hsp90 = Hsp90 (Homo sapiens, UniProt P07900); details: cited from earlier work

Chain of terminal deoxynucleotidyl transferase (P04053 whole entry, species assumed): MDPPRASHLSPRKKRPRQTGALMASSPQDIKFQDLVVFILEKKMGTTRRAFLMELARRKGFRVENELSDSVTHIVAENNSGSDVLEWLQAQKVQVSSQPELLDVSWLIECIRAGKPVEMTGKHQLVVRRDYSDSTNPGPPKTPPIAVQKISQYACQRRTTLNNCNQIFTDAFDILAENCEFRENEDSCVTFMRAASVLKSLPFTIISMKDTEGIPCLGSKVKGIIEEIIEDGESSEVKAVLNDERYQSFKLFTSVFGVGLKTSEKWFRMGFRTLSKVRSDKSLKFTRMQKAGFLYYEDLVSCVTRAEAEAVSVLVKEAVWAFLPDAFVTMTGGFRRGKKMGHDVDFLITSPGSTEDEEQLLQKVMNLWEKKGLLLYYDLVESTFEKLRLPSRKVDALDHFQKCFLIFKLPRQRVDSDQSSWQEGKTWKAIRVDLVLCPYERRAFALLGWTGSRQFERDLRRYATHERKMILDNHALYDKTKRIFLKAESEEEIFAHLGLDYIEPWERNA

In the case of `CO[C@H]1[C@@H](OC)C[C@H](C)[C@@H](OC)C2=CC(=O)C=C(NC(=O)/C(C)=C/C=C\[C@H](C)[C@@H](OC(N)=O)/C(C)=C/[C@@H]1C)C2=O` [Macbecin, macbecin], the “Reverse transcriptase activity inhibition” value (Reverse transcriptase) is given as “not inhibited” and the “terminal deoxynucleotidyl transferase activity inhibition” value [1] is given as “not inhibited”.

In the case of 15-desmethoxy macbecin [compound 15], the “Test/Control (%) at drug concentration” value (MEXF 394NL; 1 μg/mL) is reported as 24.3%, the “Test/Control (%) at drug concentration” value (MEXF 394NL; 10 μg/mL) is reported as 4.7% and the “Test/Control (%) at drug concentration” value (LXF 1121L; 1 μg/mL) is reported as 47.7%. The “Test/Control (%) at drug concentration” value (LXF 1121L; 10 μg/mL) was 14.7%, the “Test/Control (%) at drug concentration” value (CNXF 498NL; 1 μg/mL) was 44.3% and the “Test/Control (%) at drug concentration” value (CNXF 498NL; 10 μg/mL) was 12.7%. The “Test/Control (%) at drug concentration” value (DU145; 1 μg/mL) was 30.3%, the “Test/Control (%) at drug concentration” value (DU145; 10 μg/mL) was 6.3% and the “Test/Control (%) at drug concentration” value (MCF-7; 1 μg/mL) was 53.3%. The “Test/Control (%) at drug concentration” value (MCF-7; 10 μg/mL) was 13%, the “Test/Control (%) at drug concentration” value (CXF HT29; 1 μg/mL) was 54.7% and the “Test/Control (%) at drug concentration” value (CXF HT29; 10 μg/mL) was 13%.

For `CO[C@H]1C[C@H](C)Cc2cc(O)cc(c2)NC(=O)/C=C/CC[C@H](OC)[C@@H](OC(N)=O)/C(C)=C/[C@H](C)[C@H]1O` [KOSN1559], the “binding affinity to Hsp90, greater than 17-AAG” value (Hsp90; relative to 17-AAG) is listed as 8 fold and the “binding affinity to Hsp90, greater than geldanamycin” value (Hsp90; relative to geldanamycin) is listed as 4 fold.

Source: US20090298804A1, “Novel Compounds and Methods for Their Production” (priority 2006, published 2009)
